# Test results reported in a melting point compilation (Tetko et al.; mined from patent text by program, amines drawn as free bases though some values may be those of a salt).
row,Structure (SMILES),melting point [°C]
1,O=CC1=C(c2ccc(Cl)c(Cl)c2)C2CCC1CC2,71 to 71.5
2,CCC1=C(C#N)C(c2cccc(Cl)c2Cl)c2c[nH]nc2N1 (stereo not drawn),> 300
3,N#CCc1c(C(=O)O)cc2ccc3c(c2c1-c1ccc(F)cc1)OCO3,230 to 233
4,Cc1nc(N)nc(N)c1CCCc1cc(Cl)c(Cl)cc1Cl,215
5,CN(C)Cc1nnc(CN2C(=O)c3ccccc3C2=O)n1-c1ccc(Cl)cc1C(=O)c1ccccc1,206 to 208
6,COc1cccc(-c2cc(=O)c3c(OC)cc(OC)c(C4=CCN(C)CC4)c3o2)c1OC,195 to 196
7,CCCCCCON=C(C(=O)OCC)c1csc(N)n1,77 to 78
8,CCOC(=O)C(Oc1ccccc1)c1ccccc1 (stereo not drawn),45
9,COc1ccc(C2CC(=O)N(Cc3ccc4ccc(Cl)cc4n3)C2)cc1OC1CCCC1 (stereo not drawn),106 to 107
10,COc1cc(C(F)(F)F)cc(Cl)c1-n1nc(C#N)c(S(=O)C(F)(F)F)c1N (stereo not drawn),195
11,O=C1Nc2ccc(Br)cc2C12CCCCC2,196 to 199
12,Cn1nnnc1-c1cn(C)c2cc(N3CCOCC3)ccc2c1=O,235 to 238
13,N#Cc1nn(-c2c(Cl)cc(C(F)(F)F)cc2Cl)c(N)c1S(=O)(=O)C(F)(F)F,219 to 222
14,O=S1(=O)N=CN(C2CC2)c2ccc(C(F)(F)F)cc21,160 to 162
15,CC(=O)NC(NC(=O)c1ccccc1C(=O)O)C(=O)NCc1ccccc1 (stereo not drawn),186 to 188
16,N#Cc1c(N2CCc3ccccc3CC2)ncn(CCO)c1=O,167 to 171
17,CCNC(=O)N1CCC(c2cc(F)ccc2F)(S(=O)(=O)c2ccc(Cl)cc2)CC1,172 to 174
18,CC(C)CC(C(=O)O)c1cc(Cl)c(-c2ccc(C(F)(F)F)cc2)c(OCC2CC2)c1 (stereo not drawn),115 to 116
19,Cn1cc2c(C#CCO)cccc2n1,139 to 140
20,CC(C)(S)CNC(=O)CCCC(=O)O,101 to 104
21,CCCN1CCC(C(=O)Nc2ccc(CN(C)C3CCOCC3)cc2)=Cc2cc(-c3ccc(N4CCOCC4)cc3)ccc21,114 to 118
22,CSC(=O)NCc1c[nH]c2ccccc12,110 to 111

row,Structure (SMILES),melting point [°C]
1,COCCCCCCCCCCCC(=O)NCc1ccccc1,77.7 to 79.4
2,C[Si](C)(C)C1=C(c2ccccc2)C(c2ccccc2)=C([Si](C)(C)C)[Si]1(C)C,100
3,CS(=O)(=O)N[C@@H](CCCCN)C(=O)NC[C@H](CC1(C(=O)N[C@@H](Cc2ccc(O)cc2)C(=O)O)CCCC1)C(=O)O,237 to 238
4,OC1CC2(CCN(C3CCC3)CC2)Oc2ccccc21 (stereo not drawn),211 to 213
5,CCCCc1ccc(C(=O)N[C@H](Cc2ccc(C(F)(F)F)cc2)[C@@H](O)c2ccc(F)cc2)cc1 (racemic),171 to 172
6,CCN(CC)c1cccc2nc3n(c12)CC(F)(F)CN3c1ccc(Cl)cc1Cl,125 to 127
7,CC[C@@H]1N(c2ccc(C#N)c(Cl)c2C)C(=O)C[C@@]1(O)C1CC1,177 to 179
8,CSc1sc(C(=O)O)c2c1-c1sc(C(=O)O)cc1CC2,> 300
9,c1ccc2sc(-c3ccnc(Nc4ccc5c(c4)OCCO5)c3)cc2c1,154
10,O=c1oc(-c2ccccc2)nc2ccc(Br)cc12,199 to 201
11,Cc1cc(N)n(-c2ccc(Cl)cc2C)n1,86 to 87
12,O=S(=O)(c1ccccc1)n1c(-c2c(F)cccc2F)nc2ccccc21,104 to 106
13,CCCCC(CC)COc1ccc(N2C(C)=CC(=C=C3C(C#N)C(=C(C#N)C#N)OC3(C)C)C=C2C)cc1 (stereo not drawn),237
14,Cc1cc2c(cc1-c1cc(C=C3SC(=O)NC3=O)ccc1OC(F)(F)F)N(C)C(=O)CC2(C)C,182 to 184
15,CCOC(=O)C1(NS(=O)(=O)c2ccc(F)cc2)CCCCC1,96 to 98
16,OCc1cc(F)cc(Br)c1,41 to 43
17,CCCCCCCCCCCCCCCCCCSC(C)CCO (stereo not drawn),35 to 38
18,O=C(O)C(Br)CCCCCc1ccc(Cl)cc1 (stereo not drawn),77 to 79
19,O=C(c1ccccc1)C1CCN(Sc2ccncc2)CC1,123 to 124
20,O=c1cc(S)sc2ccoc12,> 245
21,CC(=Cc1ccc(C(C)(C)C)cc1)C[N+]1([O-])CCCCC1,82 to 88
22,O=Cc1cc2n(n1)-c1ccc(Cl)cc1C(c1ccccc1)=NC2,170 to 172

row,Structure (SMILES),melting point [°C]
1,COc1ccc(-c2nn(Cc3ccc(Cl)cc3)c(=O)cc2-c2ccncc2)cc1,175 to 176
2,CC(=O)NCC1CN(Cc2ccccc2)CCO1 (stereo not drawn),110 to 111
3,CCn1nc(C2CC2)c(C(=O)O)c1Cc1ccc(-c2ccccc2S(=O)(=O)NC(=O)c2ccccc2)cc1,217
4,CCOC(=O)C1CCNC(=O)C1=NCCc1ccccc1 (stereo not drawn),99 to 100
5,O=C1c2cccc(N(CCO)CCO)c2OC12CC2,74 to 76
6,CC(C)N1C(=O)c2cccnc2NS1(=O)=O,190
7,Cc1ccc(NCCCCOc2ccc3ccccc3c2)cc1,98
8,CSCCNC(=O)N(C)c1cnc(-c2cncc(F)c2)s1,117 to 119
9,CC1(C)CCNC(=O)C(Cl)(Cl)C1,108 to 110
10,N#Cc1cn(N(CO)c2c(Cl)cc(Cl)cc2Cl)c(=O)[nH]c1=O,> 300
11,O=C1NCC(c2ccccc2)CCC1Br (stereo not drawn),218 to 220
12,CCc1nc2c(Cl)cc(F)c(-n3c(=O)cc(C(F)(F)F)[nH]c3=O)c2s1,178 to 180
13,COC1=CC(=NC2CCCCC2)c2ccccc2C1=O,145 to 147
14,CCCCCc1cc(N)cc(O)c1,88 to 91
15,O=C(Nc1ccc(Cl)cc1)ONC1=Nc2ccc(Cl)cc2C(c2ccccc2)=NC1,200 to 203
16,c1ccc(CSc2nc3ccccn3n2)cc1,79 to 81
17,COc1ccc2c(c1)CCC1C2=CCC2(C)C(O)CCC12 (stereo not drawn),95 to 97
18,O=C1NC(=O)c2ccc(-c3ccc(F)cc3)cc2/C1=C/Nc1ccc(CN2CCCC2)cc1,152 to 153
19,C#CCn1c(C(F)(F)F)c(CO)oc1=O,64
20,Cc1c[nH]c(-c2cnn(-c3c(Cl)cc(C(F)(F)F)cc3Cl)n2)n1,217 to 218
21,CNC(=S)N1CCc2cc(S(=O)(=O)N3CC(c4ccccc4)NC3=O)ccc21 (stereo not drawn),217 to 219
22,CCN(CC)c1cc(C)c2ncc(C#N)c(O)c2c1,> 250

# Other lines, results leading:
row,melting point [°C],Structure (SMILES)
1,111 to 113,Cc1c(NC(=O)c2ccc(OC[C@@H]3CCCO3)cc2)ccc2cc(CNCCOC(C)C)cnc12
2,50,CCC(C)c1cc(Cl)cc(Cl)c1OCC(=O)NCCCCNC(=O)OC(C)(C)C (stereo not drawn)
3,88 to 91,CCCCCCOc1ccc2cc(C(C)C(=O)O)ccc2c1 (stereo not drawn)
4,134 to 138,CC(=O)c1cc2c(Sc3ccc(C)cc3)cncc2s1
5,82 to 85,CCC(CC)Oc1ccc(/C=C/C(=O)Nc2ccccc2C(=O)O)cc1OC
6,49 to 51,COc1cc(N)c(C)c(OC)c1OC
7,107 to 108,COC(=O)Cc1cn(-c2ccccc2)nc1OCc1ccc(OCc2nc(-c3ccccc3)oc2C)c(OC)c1
8,143 to 145,CCOC(=O)c1cnc2ccc(OCC)nc2c1Nc1ccc(OCC(O)CO)cc1 (stereo not drawn)
9,141 to 144,CC(C)n1nc(-c2sc(C(=O)N(C)C)nc2-c2ccccc2)ccc1=O
10,158 to 160,CC(C)(C)OC(=O)CCc1cccc(-c2nc(=O)c3ccc(F)cc3s2)n1
11,267 to 268,CC(C)NC(=O)Nc1nc(Cc2c(Cl)cccc2Cl)nc(Nc2ccc(C#N)cc2)n1
12,151,CC(C)(CCc1cc2cc(Cl)ccc2n1S(=O)(=O)c1ccc2ncsc2c1)C(=O)O
13,> 300,O=[N+]([O-])c1cc(-c2nc3ccccc3[nH]2)cc(O)c1O
14,206 to 208,COc1ccc(C2=NN(C3CCN(C(C)=O)CC3)C(=O)C3CC=CCC23)cc1Cl (stereo not drawn)
15,126 to 127,COc1cc2c(cc1OCc1ccccc1)C(O)CN(Cc1cc(OC)c(OC)c(OC)c1)C2 (stereo not drawn)
16,64 to 66,COC(=O)c1ncoc1-c1cccs1
17,127 to 128,COc1ccc(C2CCN(CCC3CCCCc4ccccc43)CC2)cc1OC (stereo not drawn)
18,148,COc1cc(OC)cc(-c2nc[nH]c2-c2ccc(OC)c(O)c2N)c1
19,81,COC(=O)C(Oc1nc(OC)cc(OC)n1)C(OC)(c1ccccc1)c1ccccc1 (stereo not drawn)

row,melting point [°C],Structure (SMILES)
1,139 to 140,CCOC(=O)C1=C(C)NC(=O)N(C(=O)OC(C)C)C1c1cccc(Cl)c1Cl (stereo not drawn)
2,135 to 137,CC(C)(C)c1cc(-c2nn(CC3CC3)c3ncccc23)cc(C(C)(C)C)c1O
3,110,CC(C)(C)OC(=O)[C@@H]1CS[C@H](c2ccccc2F)N1C(=O)CNC(=O)Nc1cccc(CC(=O)O)c1
4,184 to 185,CC(C)c1ccc2c(c1)c(-c1ccccc1Cl)c(C(=O)O)c(=O)n2C
5,178 to 180,CCCc1cc(O)cc2cc(-c3ccc(O)cc3)oc12
6,165 to 167,CC(C)(C)C1=CC(=Nc2ccc(CCC(=O)O)cc2)C=C(C(C)(C)C)C1=O
7,112 to 114,CC/C(=C\C=C\C(=O)Oc1ccc([N+](=O)[O-])cc1)c1ccc(OC)cc1
8,251 to 254,CCCNc1cccc(-c2ccc(C(=O)O)c(=O)[nH]2)c1
9,134,CCNc1ccc(C(=O)Nc2ccc3ccc(OC)nc3n2)cc1
10,206,COc1ccccc1S(=O)(=O)C(C)(Cc1ccc2ncccc2c1)C(=O)NO (stereo not drawn)
11,210,O=C(O)c1cc(NC(C(=O)O)c2ccccc2Cl)c(Cl)cc1Cl (stereo not drawn)
12,120 to 122,CCC(=O)c1cccc(Oc2nc(OC)cc(OC)n2)c1C(=O)OC
13,73 to 75,C=CCOC(=O)CCCOc1cc([N+](=O)[O-])c(CO)cc1OC
14,167 to 168,CCOC(=O)c1ccc(-c2ccc(-c3ccc(Cl)cc3)s2)cc1
15,153 to 154,COCOc1c(C)cc(-c2ccc(C(=O)O)cc2)cc1C
16,223 to 224,CC(=O)c1cc(C(C)=O)cc(N(C(C)=O)C(=O)Nc2ccccc2)c1
17,264 to 265,COc1cc2c3c(cccc3c1[N+](=O)[O-])C(=O)N(O)C2=O
18,76,CCSc1c(C=NOCc2ccccc2)c(=O)n(C)c(=O)n1C
